Measured values reported in ChEMBL document CHEMBL1221220, “Transport and signaling via the amino acid binding site of the yeast Gap1 amino acid transceptor” (Nat Chem Biol, 2009).
The source made the active and inactive calls. The calls are words filed in the database; no cut-off is given here.

System: T1, General amino-acid permease GAP1 (Saccharomyces cerevisiae), P19145 [A385C]
T1 sequence (whole entry): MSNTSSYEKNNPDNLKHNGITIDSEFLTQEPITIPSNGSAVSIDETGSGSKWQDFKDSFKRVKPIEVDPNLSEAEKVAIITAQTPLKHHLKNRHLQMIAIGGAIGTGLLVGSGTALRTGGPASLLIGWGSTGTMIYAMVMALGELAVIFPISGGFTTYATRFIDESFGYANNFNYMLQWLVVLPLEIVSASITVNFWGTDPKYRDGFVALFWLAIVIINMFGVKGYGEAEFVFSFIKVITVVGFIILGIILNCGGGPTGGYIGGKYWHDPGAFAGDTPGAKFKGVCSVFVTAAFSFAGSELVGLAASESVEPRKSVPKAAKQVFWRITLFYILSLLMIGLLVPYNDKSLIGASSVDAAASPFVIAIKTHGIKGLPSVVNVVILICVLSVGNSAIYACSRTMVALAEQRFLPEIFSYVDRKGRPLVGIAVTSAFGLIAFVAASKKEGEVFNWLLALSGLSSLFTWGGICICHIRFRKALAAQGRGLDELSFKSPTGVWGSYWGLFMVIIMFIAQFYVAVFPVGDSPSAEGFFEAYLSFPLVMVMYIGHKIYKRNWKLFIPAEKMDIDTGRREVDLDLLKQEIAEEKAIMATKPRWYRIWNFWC
Experiment: Induction of yeast Gap1 A385C mutant-mediated […] activation at 2 mM in presence of 10 mM MTSEA treated before compound addition

inhibition: Active
SMILES: NC(=O)NCCC[C@H](N)C(=O)O
